Assay results published in patent publication US20060051316A1, “Remedy” (priority 2002, published 2006).

Experiments:
[1] = test system: BMP-2 production of human osteosarcoma cell strain HuO9; assay: Enhancing activity for BMP-2 production, enzyme immunoassay of culture medium; format: cell-based; details: for Enhancing Activity for BMP-2 Production: HuO9; for Enhancement of BMP-2 production (result in words): HuO9 cells
Method: Human osteosarcoma cell strain HuO9 was suspended in a DMEM medium (manufactured by Bio Whittaker) containing 10% fetal bovine serum (manufactured by Bio Whittaker) so as to have a concentration of 1×10^5 cells/ml. The suspension was put into a 96-well plate in an amount of 0.1 ml per well, and the cells were cultured sterilely. After the cells were cultured for 2 days, the medium was exchanged with a fresh medium. The fucoidan derived from Kjellmaniella crassifolia obtained in item (1) of Reference Example 1 was added thereto as a sample, and the cells were cultured for 48 hours. Next, the concentration of bone morphogenetic protein-2 (BMP-2) in the culture medium was measured with enzyme immunoassay method (BMP-2 Immunoassay: manufactured by GT). The enhancing activity for BMP-2 production was expressed by setting as a control one without addition of the sample, and defining the BMP-2 concentration in the cell culture medium (the amount of BMP-2 production of a cell) as 100%.

[2] = test system: Mouse embryo derived cell strain C3H10T1/2; assay: Induction of differentiation into osteoblasts, alkaline phosphatase activity in cells; format: cell-based; details: for Alkaline Phosphatase Activity: 7 days, C3H10T1/2, control = 100%, average of two experiments
Method: Mouse embryo derived cell strain C3H10T1/2 was suspended in a DMEM medium containing 10% fetal bovine serum so as to have a concentration of 3×10^4 cells/ml. The suspension was put into a 96-well plate in an amount of 0.1 ml per well, and the cells were cultured sterilely. After the cells were cultured for 3 days, the medium was exchanged with a fresh medium. Heparan sulfate, or the Chlorella sulfated polysaccharide fraction CSP-I or CPS-II obtained in Reference Example 4 was added thereto as a sample, and the cells were cultured for 7 days. Subsequently, differentiation of C3H10T1/2 into osteoblasts was determined using an increase of the alkaline phosphatase activity in the cells as an index. The cells were washed once with PBS. One-hundred microliters of a reaction substrate solution (100 mM diethanolamine buffer pH 10.0, 2 mM magnesium chloride, 1 mM p-nitrophenyl phosphoric acid) was added thereto, and the reaction was carried out at 37° C. for 30 minutes. Next, 100 μl of 0.2 N sodium hydroxide was added thereto to stop the reaction, and the amount of p-nitrophenol which was released was determined with an absorbance at 405 nm. The alkaline phosphatase activity when a sample was added was expressed by setting as a control one without addition of the sample, wherein the alkaline phosphatase activity of the control was defined as 100%. The activity indicates an induction activity of differentiation into osteoblasts. The experiments were carried out twice, and the average value was taken.

[3] = 10 μg/ml, control = 100% (0.083 ng/ml)
[4] = 100 μg/ml, control = 100% (0.083 ng/ml carrageenans, 0.070 ng/ml low-molecular-weight heparin)
[5] = 500 μg/ml, control = 100% (0.201 ng/ml for 7-12SFd-F, 0.130 ng/ml for chondroitin sulfate B and pectic acid)
[6] = 1000 μg/ml, control = 100% (0.201 ng/ml for 7-12SFd-F, 0.130 ng/ml for chondroitin sulfate B and pectic acid)
[7] = 10 μg/ml, control = 100% (0.110 ng/ml)
[8] = 100 μg/ml, control = 100% (0.110 ng/ml)

Molecule | Enhancing Activity for BMP-2 Production [1, 3] | Enhancing Activity for BMP-2 Production [1, 4] | Enhancement of BMP-2 production (result in words) [1] | also measured
carrageenan κ | 219.3% | 263.3% | enhance BMP-2 production in a concentration-dependent manner | 
carrageenan λ | 359.6% | 485.5% | enhance BMP-2 production in a concentration-dependent manner | 
Heparan sulfate |  |  |  | Alkaline Phosphatase Activity ([2]; 10 μg/ml): 132.2%; Alkaline Phosphatase Activity ([2]; 100 μg/ml): 178.0%; Induction of differentiation into osteoblasts (result in words) ([2]; C3H10T1/2 cells): induce differentiation into osteoblasts in a concentration-dependent manner
O=C(/C=C/c1ccc(O)c(O)c1)O[C@@H]1C[C@](O)(C(=O)O)C[C@@H](O)[C@H]1O [Chlorogenic Acid, chlorogenic acid] |  |  | enhance BMP-2 production in a concentration-dependent manner | Enhancing Activity for BMP-2 Production ([1]; 88.6 μg/ml, control = 100% (0.041 ng/ml)): 319.5%; Enhancing Activity for BMP-2 Production ([1]; 177.2 μg/ml, control = 100% (0.041 ng/ml)): 320.4%
low-molecular-weight heparin |  | 390.0% | enhance BMP-2 production in a concentration-dependent manner | Enhancing Activity for BMP-2 Production ([1]; 1000 μg/ml, control = 100% (0.070 ng/ml)): 807.1%
chondroitin sulfate B |  |  | enhance BMP-2 production in a concentration-dependent manner | Enhancing Activity for BMP-2 Production [1, 5]: 524.5%; Enhancing Activity for BMP-2 Production [1, 6]: 846.2%
heparin |  |  | enhance BMP-2 production in a concentration-dependent manner | Enhancing Activity for BMP-2 Production [1, 7]: 435.1%; Enhancing Activity for BMP-2 Production [1, 8]: 1339%
dextran sulfate |  |  | enhance BMP-2 production in a concentration-dependent manner | Enhancing Activity for BMP-2 Production [1, 7]: 2789%; Enhancing Activity for BMP-2 Production [1, 8]: 2984%
pectic acid |  |  | enhance BMP-2 production in a concentration-dependent manner | Enhancing Activity for BMP-2 Production [1, 5]: 220.3%; Enhancing Activity for BMP-2 Production [1, 6]: 242.1%
carrageenan ι | 201.2% | 517.5% | enhance BMP-2 production in a concentration-dependent manner | 
